“Also recorded” adds a separate entry of the source.
Key:
[1] = tested on: IL-1β-induced NF-κB signaling in HEK-blue IL-1β cells; experiment: In vitro IL-1β neutralization assay in HEK-blue IL-1β reporter cells (SEAP); type: cell-based, human
Text: FIG. 1 illustrates inhibitory effect on IL-1β-induced NF-κB signaling of different selected IgGs from generic human phage-display libraries in HEK-blue IL-1β cells. (A) IL-1β bound to its receptor IL-1RI and its receptor accessory protein IL-1RAcP to form the IL-1β/IL-1RI/IL-1RAcP ternary complex. IL-1β induces downstream signaling pathways, including NF-κB activation (IκB degradation) and AP-1 activation (phosphorylation of JNK, p38 and ERK). (B) Ten IgGs bound to human IL-1β were selected from the generic human phage-display library.
FIG. 4 illustrates the comparison of IL-1β neutralizing abilities in different IL-1β-neutralizing antibodies. IL-1β was diluted from 1500 to 0 pM. Each antibody was added at a 5 nM concentration with different concentrations of IL-1β. HEK-blue-IL-1β cells were used to detect the IgG inhibitory effects of IL-1β signaling. The binding curve was fitted by a nonlinear regression curve to obtain the IC50.
FIG. 8 illustrates binding affinities and inhibitory effects of IgG variants selected from optimized IgG26 phage-display libraries. […] (B) Inhibitory effects on IL-1β-mediated downstream signaling were examined in 30 pM IL-1β-stimulated HEK-blue reporter cells. […]
After 16 hours, the inhibitory effect of IL-1β-induced signaling was monitored by SEAP assay. […]

[2] = target: recombinant human IL-1β (117-269 amino acids, without the pro-peptide region) (human) (UniProt P01584)
[3] = target: recombinant human IL-1β (R&D systems) (human) (UniProt P01584)
[4] = tested on: human IL-1β-induced IL-6; experiment: Cytokine biomarker assay: human IL-1β-induced serum IL-6 in mice; type: in vivo; conditions: 0.2 mg/kg antibody intravenously, human IL-1β 240 ng/mouse intraperitoneally, male C57BL/6 mice
Method: FIG. 5 illustrates cytokine biomarker assay. (A) The concentration of injected IgG1 at different time courses to compare the stability of IgG in male C57BL/6 mouse serum. […] Then, the mice were injected intraperitoneally with human IL-1β (240 ng/200 μL/mouse). Two hours after the injection, the mice were restrained, and blood was collected to detect the serum IL-6 level in the mice. IgG26AW treatment can inhibit the 40% induction of IL-6, which responds to human IL-1β boosting.
Then, the mice were injected intraperitoneally with recombinant human IL-1β (R&D systems) 240 ng/200 μL/mouse; then, 2.5 hours after the injection (peak IL-6 response time), the mice were restrained, and blood was collected via a facial vein with a lancet. Serum mouse IL-6 levels were measured using a Quantikine ELISA Kit (R&D System) according to the manufacturer's protocol.
To determine whether various rodent and primate disease models could be used to test the in vivo efficacy of IgG26AW, the ability of IgG26AW to bind a number of species orthologs of IL-1β was measured by SPR. […] This affinity is not sufficient to test IgG26AW efficacy in mouse disease models. […] Moreover, concentrations of IgGs after the injection in the serum were evaluated in different time courses.

With `O=C(OC[C@H]1O[C@@H](OC(=O)c2cc(O)c(O)c(O)c2)[C@H](OC(=O)c2cc(O)c(O)c(O)c2)[C@@H](OC(=O)c2cc(O)c(O)c(O)c2)[C@@H]1OC(=O)c1cc(O)c(O)c(O)c1)c1cc(O)c(O)c(O)c1` [PGG, 1,2,3,4,6-Penta-O-Galloyl-β-D-Glucose] the “NF-κB signaling inhibition of low dose IgG26AW combined with PGG” value ([1]; 69 pM IgG26AW combined with 50 μM PGG, IL-1β 588 to 0 pM (FIG. 14)) was “efficiently inhibits the NF-κB signaling as similar as 690 pM IgG26AW can do” and the “effect of PGG cotreatment with IgG26AW on IL-1β induced NF-κB signaling” value ([1]; 75 pM IL-1β, IgG26AW 69 nM to 0 nM, PGG 30 μM or 50 μM (FIG. 13)) was “synergistically reduce NF-kB signaling; also recorded: dose-dependent inhibitory effect on NF-κB signaling”.
Work on canakinumab (antibody) yielded an IL-1β concentration whose NF-κB signal is half inhibited by 5 nM antibody (HEK-blue IL-1β cells, SEAP assay; called IC50 in the legend) [2] of 0.925 nM and a human IL-1β-induced systemic IL-6 expression in C57BL/6 mice (serum mouse IL-6, ELISA) [3] of 47%.
For “canakinumab: marketed anti-IL-1β antibody (Novartis), synthesized from patent US20090232803”, the “inhibition of human IL-1β-induced systemic (serum) IL-6” value [4] was 47%.

From US20230220065A1, “ANTIBODIES TO INTERLEUKIN-1BETA AND USES THEREOF” (ACADEMIA SINICA, priority 2020, published 2023)
